Test results published in patent publication US10645922B2, “Methods and compositions for pest bait” (Dow AgroSciences LLC, priority 2015, dated 2020).
Entries after “also recorded” stand apart in the source; their conditions may differ.

System: termites
Experiment: Two-way choice bioassay, filter paper consumption by termite workers
Type: in vivo, Reticulitermes flavipes
Details: FIG. 1A, FIG. 1B; series of experiments and validated tests
Method: Two-way choice bioassays are conducted with the granule formulation containing 1% 1-MCP in weight boats. Test materials are placed in weigh boats to prevent physical contact of termite workers with test material. Filter papers associated with 1-MCP are used to qualify consumption. Bioassay arenas are placed inside sealed plastic containers with open moisture sources to maintain high humidity for releasing 1-MCP from the granule formulation. […] The experiment results are also shown in Table 1, where negative control uses granules having 22% alpha-cyclodextrin+78% sodium bentonite.

For CC1=CC1 [1-MCP, 1-methylcyclopropene], the “Filter paper consumption in presence of 1-MCP (in words)” value was “Significant higher consumption; also recorded: significantly increase”.
